Data reported in PubChem BioAssay (NCI).
Several values for one entry are separate records, joined by “and”; a condition that tells them apart may be missing. Equal entries are not always repeated.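 The compound was tested at five concentrations on cells cultured in 96-well plates, with a 48-hour exposure period. The concentration for 50% growth inhibition is given as GI50. Definition used: TGI = concentration required for complete inhibition of growth.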

What was measured:
Test in all cases: inhibition of tumour cell growth, NCI panel, 48 h
[1] = tested on: UACC-62 melanoma
[2] = tested on: OVCAR-5 ovarian
[3] = tested on: SR leukemia
[4] = tested on: U251 CNS
[5] = tested on: HOP-62 NSCLC
[6] = tested on: MDA-MB-231 breast
[7] = tested on: NCI-H23 lung
[8] = tested on: RPMI-8226 leukemia
[9] = tested on: NCI/ADR-RES ovarian
[10] = tested on: CCRF-CEM leukemia

Row | SMILES | TGI [1] | TGI [2] | TGI [3] | TGI [4] | TGI [5] | TGI [6] | TGI [7] | TGI [8] | TGI [9] | TGI [10] | GI50 [2] | GI50 [3] | GI50 [5] | GI50 [8] | GI50 [1] | GI50 [6]
1 | S=C(NCc1ccccc1)N/N=C/c1ccccn1 | 25.1 µM | > 100 µM | > 21 µM | 23.9 µM | 71.5 µM | > 100 µM | > 100 µM | 2.33 µM | 8.52 µM |  |  |  |  |  |  | 
2 | O=C1c2ccccc2-c2[nH]c3cn[nH]c(=O)c3c21 | > 100 µM | > 100 µM | > 100 µM | > 100 µM | > 100 µM | > 100 µM | > 100 µM | > 100 µM | > 100 µM | > 100 µM |  |  |  |  |  | 
3 | Cc1nc2ccc(Cl)cc2c2c1CCN2c1ccccc1 | 23.6 µM |  | 36.3 µM | 35.2 µM | 83.8 µM | 13.7 µM | 43.6 µM | 31.4 µM | 26 µM | 23.1 µM |  |  |  |  |  | 
4 | Cc1ccc(S(=O)(=O)N(CC(O)COc2ccccc2)c2ccc(F)cc2F)cc1 (configuration not stated) | 31.9 µM | 34.1 µM | 73.6 µM | 27.5 µM | 30.1 µM | 39 µM | 27.7 µM | 34.5 µM | 33.3 µM | 53.8 µM |  |  |  |  |  | 
5 | O=C1c2ccccc2C(=O)N1c1nc(-c2ccc(Cl)cc2)cc(N2N=C(c3ccc(Br)cc3)CC2c2ccccc2)n1 (configuration not stated) | 11.5 µM |  | 2.42 µM | 5.99 µM | > 23 µM | 23.3 µM | > 22.6 µM | 11.7 µM | 6.05 µM | > 29.6 µM |  |  |  |  |  | 
6 | O=C(CC1Sc2ccccc2NC1=O)Nc1ccc(Cl)cc1 (configuration not stated) | > 100 µM | > 100 µM | > 100 µM | > 100 µM | > 100 µM |  | > 100 µM | > 100 µM |  | > 100 µM |  |  |  |  |  | 
7 | O=C(c1ccco1)N(C(=S)OC12CC3CC(CC(C3)C1)C2)c1ccccc1 | 73.4 µM | > 100 µM | 97.9 µM | 59.5 µM | > 100 µM | > 100 µM | 87.3 µM |  | > 100 µM | 59.5 µM |  |  |  |  |  | 
8 | N#Cc1nc(C#N)n(C(=O)c2ccccc2)c1NC(=O)c1ccccc1 | > 100 µM | > 100 µM |  | > 100 µM | > 100 µM | > 100 µM | > 100 µM | > 100 µM | > 100 µM | > 100 µM |  |  |  |  |  | 
9 | O=[N+]([O-])c1ccc(C(Nc2ccccc2)c2ccc3cccnc3c2O)cc1 (configuration not stated) | 35.8 µM | > 100 µM |  | 25.2 µM | > 100 µM | 59.9 µM | > 100 µM | 38.5 µM | > 69.3 µM | > 22.2 µM |  |  |  |  |  | 
10 | COC(=O)c1c(-c2ccc(Cl)cc2)cc2c3ccccc3n(C)c2c1C(=O)OC | > 100 µM | > 100 µM |  | > 100 µM | > 100 µM | > 100 µM | > 100 µM |  | > 100 µM | > 100 µM |  |  |  |  |  | 
11 | CSc1nc(NC(C)C)c2c(n1)Sc1nc3ccccc3n1C2O (configuration not stated) |  |  | > 100 µM | > 100 µM | > 100 µM | > 100 µM | > 100 µM | 12.5 µM |  | 4.95 µM |  |  |  |  |  | 
12 | COC(=O)C1=C(O)C(C(=O)OC)[C@]2(O)[C@H](C(=O)OC)[C@H]1C[C@@H](c1ccc([N+](=O)[O-])cc1)[C@H]2C(=O)OC (some centres not stated) | 29.1 µM | 65.9 µM |  | 28.6 µM | > 100 µM | 83.9 µM | 31.4 µM |  | 51.8 µM | 67 µM |  |  |  |  |  | 
13 | Cc1nc(-c2cc3cc(Cl)ccc3oc2=O)cc2c1c(=O)oc1ccc(Cl)cc12 | > 100 µM |  | > 100 µM | > 100 µM | > 100 µM | > 100 µM | > 100 µM | > 100 µM | > 100 µM | > 100 µM |  |  |  |  |  | 
14 | O=C1C=CC(=O)c2c(O)c(N3CCN(CCOCCO)CC3)c(Cl)c(O)c21 | 3.01 µM [middle of 4 runs] | 3.32 µM [middle of 4 runs] | 0.43 µM and 0.614 µM and 0.321 µM |  | 3.84 µM and 3.6 µM and 6.67 µM |  |  | 1.01 µM [middle of 4 runs] |  |  | 1.26 µM | 0.104 µM and 0.0382 µM and 0.0771 µM | 2.07 µM and 0.983 µM and 2.64 µM | 277 nM [middle of 4 runs] |  | 
15 | COC(=O)CCCC(=O)NC1=C(NCc2ccccc2)C(=O)c2ccccc2C1=O | > 100 µM | > 100 µM | > 100 µM | > 100 µM |  | > 100 µM | > 100 µM | > 100 µM | > 100 µM | > 100 µM |  |  |  |  |  | 
16 | Cc1ccccc1OC(C)C(=O)NN1C(=O)CC(=O)N(c2ccccc2)C1=S (configuration not stated) | > 100 µM | > 100 µM |  | > 100 µM | > 100 µM | > 100 µM | > 100 µM | > 100 µM | > 100 µM |  |  |  |  |  |  | 
17 | O=C1C=CC(=O)c2c(Cl)ccc(O)c21 | 30.9 µM | > 89.3 µM |  | > 100 µM | > 100 µM |  | 17.1 µM | 23.4 µM | 42.1 µM | > 100 µM |  |  |  |  |  | 
18 | COc1ccccc1CNCCCCCCCCCCCCN1C(=O)c2ccc3c4c(ccc(c24)C1=O)C(=O)N(CCCCCCCCCCCCNCc1ccccc1OC)C3=O | > 50 µM | > 50 µM |  |  | > 50 µM | > 50 µM |  |  |  |  | > 50 µM |  | 3.64 µM |  | > 50 µM | > 50 µM
19 | CSc1ccc(/C=C2\N=C(c3ccccc3)N(/N=C/c3cc4cc(C)ccc4nc3Cl)C2=O)cc1 | 33.7 µM | 74.9 µM | 44.2 µM | 51.2 µM | > 100 µM | 47.6 µM |  | > 100 µM | 78.1 µM | > 100 µM |  |  |  |  |  | 
20 | CC(=O)/C(=C\c1ccc(Cl)c(Cl)c1)C(=O)C(C)CN(C)C (configuration not stated) |  | 23.8 µM | 5.21 µM | 12.9 µM | 41.1 µM | 27.3 µM | 30.6 µM | 3.63 µM | 72.5 µM | 0.116 µM |  |  |  |  |  | 
21 | C/C(Nc1ccc(Cl)cc1Cl)=C1/CCOC1=O | > 100 µM |  | > 100 µM | 66.5 µM | 70.8 µM | 46.3 µM | > 100 µM | > 100 µM | > 100 µM | > 100 µM |  |  |  |  |  | 
22 | C#CCC1(C(=O)OCC)C(=O)c2ccccc2N(C)C1=O (configuration not stated) | > 100 µM |  |  | > 100 µM |  |  | 36.9 µM | > 100 µM |  | > 100 µM |  |  |  |  |  | 
23 | CO[C@H]1C[C@H](O[C@H]2CC[C@]3(C=O)[C@H]4CC[C@]5(C)[C@@H](C6=CC(=O)OC6)CC[C@]5(O)[C@@H]4CC[C@]3(O)C2)O[C@H](C)[C@H]1O | 1.27 µM | 1.35 µM |  | 2.63 µM | 0.135 µM | 5.34 µM | 0.787 µM | 6.6 µM | 2.3 µM | > 100 µM |  |  |  |  |  | 
